Assay results reported in paper PMC9819389, “Antiandrogenic and Estrogenic Activity Evaluation of Oxygenated and Nitrated Polycyclic Aromatic Hydrocarbons Using Chemically Activated Luciferase Expression Assays” (International Journal of Environmental Research and Public …, 2022).
“Also recorded” adds a separate entry of the source. Like-named read-outs stand apart in the source and are kept apart here. Marks after values point to notes of the source that are not given here.

How the values were obtained:
[1] = target: T1, human AR (Homo sapiens, UniProt P10275); assay: AR-CALUX assay, antiandrogenic (AR antagonistic) activity, U2OS-luc cells; type: cell-based; set-up: host or cells: human U2OS-luc (osteoblastic osteosarcoma) cells; conditions: for REPmol (IC25): molar relative potency to flutamide, IC25-based
T1 sequence (P10275 1-920): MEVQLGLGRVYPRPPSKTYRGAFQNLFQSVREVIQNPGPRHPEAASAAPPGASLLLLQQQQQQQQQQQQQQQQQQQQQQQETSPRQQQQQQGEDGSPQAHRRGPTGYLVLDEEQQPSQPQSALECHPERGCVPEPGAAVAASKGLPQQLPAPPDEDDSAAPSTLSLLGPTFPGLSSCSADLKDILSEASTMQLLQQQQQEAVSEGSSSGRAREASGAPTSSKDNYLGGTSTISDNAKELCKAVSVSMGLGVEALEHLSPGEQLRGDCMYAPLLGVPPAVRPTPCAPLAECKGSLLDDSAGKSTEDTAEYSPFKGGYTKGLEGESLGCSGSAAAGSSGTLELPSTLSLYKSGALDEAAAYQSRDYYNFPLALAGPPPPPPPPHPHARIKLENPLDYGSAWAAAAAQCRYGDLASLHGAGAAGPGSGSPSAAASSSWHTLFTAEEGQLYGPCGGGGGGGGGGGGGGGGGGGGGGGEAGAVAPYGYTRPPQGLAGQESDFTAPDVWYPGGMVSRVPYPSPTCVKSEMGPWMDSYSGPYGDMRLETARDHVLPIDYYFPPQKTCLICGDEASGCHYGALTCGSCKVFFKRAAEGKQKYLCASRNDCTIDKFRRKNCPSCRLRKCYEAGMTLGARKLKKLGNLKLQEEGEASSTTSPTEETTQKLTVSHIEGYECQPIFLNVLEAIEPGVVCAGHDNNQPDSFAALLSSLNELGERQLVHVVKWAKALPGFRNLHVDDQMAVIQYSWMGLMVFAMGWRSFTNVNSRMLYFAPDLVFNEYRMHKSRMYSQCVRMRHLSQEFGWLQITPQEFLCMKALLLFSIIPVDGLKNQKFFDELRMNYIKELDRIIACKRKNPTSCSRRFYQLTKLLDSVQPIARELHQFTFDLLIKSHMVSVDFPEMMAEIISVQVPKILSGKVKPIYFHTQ
Experimental: The AR- and ER-CALUX assays for the polycyclic aromatic compounds were evaluated according to previously described methods, which used human U2OS-luc cells developed by BioDetection Systems b.v. (Amsterdam, The Netherlands). The cells are transfected stably with human AR and ER, respectively, and a luciferase reporter gene under their respective steroid receptor response elements. […] They were incubated at 37 °C in a humidified atmosphere containing 5% carbon dioxide. […] The medium was then removed, and the cells were lysed. A solution of luciferin was then added, and the luminescence intensity was measured with an ARVO™ X3 luminometer from PerkinElmer (Waltham, MA, USA). A sigmoid dose–response curve for a chemical was fitted to the Hill equation given by Equation (1) using SigmaPlot 11.0 from Systat Software Inc. (San Jose, CA, USA). y = min + (max − min)/(1 + (a1/x)^a^2)(1) where, y and x are the measured luciferase induction level and compound concentration, respectively. […] The REP values in mol base were obtained by dividing the ICs or ECs of the standard by the ICs or ECs of target compound, respectively.
All measurements were conducted in triplicate wells. They were repeated twice and trice in the AR- and ER-CALUX assays, respectively, for each concentration in dose–response curve. […] Cell viability was confirmed using 3-(4,5-dimethylthiazol-2-yl)-2,5-diphenyltetrazolium bromide (MTT) assay. If the cell viability was <80% in the positive control, the corresponding exposure dose was considered cytotoxic and excluded from the calculation.

[2] = target: T2, human ER (Homo sapiens, UniProt P03372); assay: ER-CALUX assay, estrogenic activity, U2OS-luc cells; type: cell-based; set-up: host or cells: human U2OS-luc (osteoblastic osteosarcoma) cells; conditions: for EC50 / REPmol (EC50): present study; for EC50: 24 h exposure; for REPmol (EC50): molar relative potency to E2, EC50-based
T2 sequence (P03372 1-595): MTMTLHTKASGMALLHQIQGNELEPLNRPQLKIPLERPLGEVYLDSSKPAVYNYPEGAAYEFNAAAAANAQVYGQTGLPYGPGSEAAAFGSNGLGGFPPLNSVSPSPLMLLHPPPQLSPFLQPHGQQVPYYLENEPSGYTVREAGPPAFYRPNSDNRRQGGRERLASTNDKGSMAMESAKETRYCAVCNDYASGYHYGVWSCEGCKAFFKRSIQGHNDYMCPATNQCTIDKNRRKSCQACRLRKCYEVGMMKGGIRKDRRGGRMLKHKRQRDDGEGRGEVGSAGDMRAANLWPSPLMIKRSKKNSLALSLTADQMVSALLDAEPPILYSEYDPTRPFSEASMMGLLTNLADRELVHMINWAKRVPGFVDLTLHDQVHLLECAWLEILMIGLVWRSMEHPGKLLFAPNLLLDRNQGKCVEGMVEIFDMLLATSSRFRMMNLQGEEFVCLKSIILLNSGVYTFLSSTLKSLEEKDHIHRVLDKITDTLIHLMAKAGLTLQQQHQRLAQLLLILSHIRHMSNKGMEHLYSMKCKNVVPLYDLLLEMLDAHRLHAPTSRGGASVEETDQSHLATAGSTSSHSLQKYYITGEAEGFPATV

[3] = test system: ER; set-up: method as in Boonen et al. [33]; conditions: previous study; relative to E2; ref Boonen et al. [33]; cited from earlier work
[4] = test system: AR; conditions: previous study, cited from earlier work
[5] = test system: AR; set-up: method as in Okamura et al. [22]; key: +, positive; conditions: cited from earlier work
[6] = test system: ER; conditions: cited from earlier work
[7] = test system: ER; set-up: method as in Pieterse et al. [30]; conditions: previous study; relative to E2; ref Pieterse et al. [30]; cited from earlier work
[8] = present study, 24 h exposure with 100 pM DHT (EC50 level)
[9] = previous study, ref Okamura et al. [22]
[10] = relative to flutamide, ref Alvarez-Muñoz et al. [28]
[11] = relative to flutamide, ref Pieterse et al. [30]

O=[N+]([O-])c1cc([N+](=O)[O-])c2ccc3cccc4ccc1c2c43 [1,3-DNPy, 1,3-dinitropyrene]
IC50 [1]: 210 nM | inhibition of AR-mediated luciferase activity ([1]; coexposure to DHT at 10 nM (100 × EC50), compound at 3 μM): 33% | mode of AR inhibition ([1]; from coexposure to 10 nM DHT): noncompetitive | IC25 [1, 8]: 130 nM | REPmol (IC25) ([1]; present study): 0.88 | EC50 [2]: U (< 10% response of 1 nM E2) | REPmol (EC50) [2]: U (< 10% response of 1 nM E2)

O=[N+]([O-])c1ccc2ccc3ccc([N+](=O)[O-])c4ccc1c2c34 [1,8-DNPy, 1,8-dinitropyrene]
REPmol (IC25) ([1]; present study): 0.91 | REPmol (EC50) [2]: U (< 10% response of 1 nM E2)

O=[N+]([O-])c1cc2c3ccccc3ccc2c2ccccc12 [6-NChr, 6-nitrochrysene]
IC25 [1, 8]: 39 nM | REPmol (IC25) ([1]; present study): 3.2 | IC50 ([1]; read-out: IC50): 88 nM

O=[N+]([O-])c1ccc2c(c1)-c1cccc3cccc-2c13 [8-NFA, 8-Nitrofluoranthene]
IC25 [1, 8]: 98 nM | REPmol (IC25) ([1]; present study): 1.3 | IC50 ([1]; read-out: IC50): 270 nM

c1ccc2cc3ccccc3cc2c1 [Ant, abthracene]
REPmol, VM7 [3]: 8.3 × 10^−7 | REPmol, U2OS ([4]; relative to flutamide, ref Marin-Kuan et al. [29]): 0.2 ^d

O=C1c2ccccc2-c2cccc3cccc1c23 [BAO, 7H-benz[de]anthracen-7-one]
REPmol, U2OS ([4]; relative to flutamide, ref Weiss et al. [34]): 0.014 ^c | EC50 ([2]; read-out: EC50): 16000 nM

O=C1c2cccc3ccc4ccc5cccc1c5c4c23 [BPO, 6H-benzo[cd]pyren-6-one]
antiandrogenic activity (in words) ([1]; present study): not observed | EC50 [2]: U (key: U: < 10% response of 1 nM E2; nd: not detected) | REPmol (EC50) [2]: U (key: U: < 10% response of 1 nM E2; nd: not detected)

c1cc2ccc3ccc4ccc5cccc6c(c1)c2c3c4c56 [BPe, Benzo[ghi]perylene]
antiandrogenic activity, PC3 [5]: +

O=C1c2ccccc2-c2ccc3ccccc3c21 [B[a]FO, 11H-Benzo[a]fluoren-11-one]
IC25 [1, 8]: 300 nM | REPmol (IC25) ([1]; present study): 0.43 | IC50 ([1]; read-out: IC50): 670 nM | EC50 ([2]; read-out: EC50): 4800 nM

c1ccc2c(c1)-c1cccc3c1c-2cc1ccccc13 [B[b]FA, benzo[b]fluoranthene]
antiandrogenic activity, PC3 [5, 9]: +

O=C1c2ccccc2-c2cc3ccccc3cc21 [B[b]FO, 11H-benzo[b]fluoren-11-one]
IC25 [1, 8]: 150 nM | REPmol (IC25) ([1]; present study): 0.81 | IC50 ([1]; read-out: IC50): 530 nM | EC50 ([2]; read-out: EC50): 4800 nM

c1ccc2c(c1)ccc1ccc3ccccc3c12 [B[c]Phe, Benzo[c]phenanthrene]
IC25 [1, 8]: 110 nM | REPmol (IC25) ([1]; present study): 1.0 | IC50 ([1]; read-out: IC50): 370 nM | activation (level of the response to 1 nM E2) ([2]; at 8 μM): 27% activation at 8 μM

c1ccc2c(c1)c1cccc3ccc4cccc2c4c31 [B[e]P, benzo[e]pyrene]
inhibition at 10 µM ([1]; at 10 μM, maximum soluble concentration, read-out: inhibition of AR activation): > 15% | antiandrogenic activity (in words) ([1]; present study): partial antagonist | EC50 [2]: U (key: U: < 10% response of 1 nM E2; nd: not detected) | REPmol (EC50) [2]: U (key: U: < 10% response of 1 nM E2; nd: not detected) | antiandrogenic activity, PC3 [5, 9]: +

c1ccc2c3c(ccc2c1)-c1cccc2cccc-3c12 [B[j]FA, benzo[j]fluoranthene]
IC25 [1, 8]: 130 nM | REPmol (IC25) ([1]; present study): 0.84 | IC50 ([1]; read-out: IC50): 290 nM | activation (level of the response to 1 nM E2) ([2]; at 3 μM): 13% activation at 3 μM | antiandrogenic activity, PC3 [5, 9]: +

c1ccc2cc3c(cc2c1)-c1cccc2cccc-3c12 [B[k]FA, benzo[k]fluoranthene]
REPmol, U2OS [4, 10]: 2.6 ^f | antiandrogenic activity, PC3 [5, 9]: +

c1ccc2c(c1)ccc1c3ccccc3ccc21 [Chr, Chrysene]
antiandrogenic activity, PC3 [5]: + | REPmol, T47D [6]: U (key: U: < 10% response of 1 nM E2; nd: not detected)

c1ccc2c(c1)cc1ccc3c4ccccc4cc4ccc2c1c43 [DB[a,h]P, dibenzo[a,h]pyrene]
antiandrogenic activity (in words) ([1]; present study): not observed; also recorded: inactive | REPmol, U2OS [7]: 2 × 10^−5 | REPmol, U2OS [4, 11]: <0.003 ^e

c1ccc2c(c1)cc1ccc3cc4ccccc4c4ccc2c1c34 [DB[a,i]P, dibenzo[a,i]pyrene]
antiandrogenic activity (in words) ([1]; present study): not observed; also recorded: inactive | activation (level of the response to 1 nM E2) ([2]; at 3 μM): 14% activation at 3 μM

c1ccc2c(c1)cc1ccc3cccc4c5ccccc5c2c1c34 [DB[a,l]P, dibenzo[a,l]pyrene]
IC25 [1, 8]: 3600 nM | REPmol (IC25) ([1]; present study): 0.037 | IC50 ([1]; read-out: IC50): 8900 nM | EC50 [2]: U (key: U: < 10% response of 1 nM E2; nd: not detected) | REPmol (EC50) [2]: U (key: U: < 10% response of 1 nM E2; nd: not detected)

c1ccc2c(c1)-c1cccc3cccc-2c13 [FA, fluoranthene]
REPmol, VM7 [3]: 4.1 × 10^−7 | REPmol, U2OS [4, 10]: 0.96 ^f

CC(C)C(=O)Nc1ccc([N+](=O)[O-])c(C(F)(F)F)c1 [Flutamide, reference compound]
REPmol, U2OS ([4]; the standard itself, no reference given): 1

c1ccc2c(c1)-c1ccc3ccc4cccc5cc-2c1c3c45 [IdP, indeno[1,2,3-cd]pyrene]
REPmol, U2OS [4, 10]: 0.35 ^f | antiandrogenic activity, PC3 [5, 9]: +

O=C1c2ccccc2C(=O)c2cc3ccccc3cc21 [NCQ, 5,12-naphthacenequinone]
antiandrogenic activity (in words) ([1]; present study): not observed | EC50 [2]: U (< 10% response of 1 nM E2) | REPmol (EC50) [2]: U (< 10% response of 1 nM E2)

O=C1C=Cc2ccccc2C1=O [NphQ, 1,2-naphthoquinone]
antiandrogenic activity (in words) ([1]; present study): not observed

O=C1C=Cc2cccc3cccc1c23 [PhO, Phenalenone]
IC25 [1, 8]: 840 nM | REPmol (IC25) ([1]; present study): 0.12 | IC50 ([1]; read-out: IC50): 2000 nM | EC50 [2]: U ^j (< 10% response of 1 nM E2) | REPmol (EC50) [2]: U (< 10% response of 1 nM E2)

c1ccc2c(c1)ccc1ccccc12 [Phe, phenanthrene]
REPmol, VM7 [3]: 1.2 × 10^−6 | REPmol, U2OS [7]: <3 × 10^−9 | REPmol, U2OS [4, 11]: 0.1 ^e

cyclopenta[cd]pyrene [CPP]
IC25 [1, 8]: 580 nM | IC50 ([1]; present study, 24 h exposure with 100 pM DHT (EC50 level), read-out: IC50): 1300 nM | REPmol (IC25) ([1]; present study): 0.14
